Results reported in ChEMBL document CHEMBL1921706, “Discovery of a novel series of melanin-concentrating hormone receptor 1 antagonists for the treatment of obesity” (Bioorg Med Chem Lett, 2011).
Each block holds one molecule with its values, some of them ahead of it. Activity calls are given as the source filed them. The calls are words filed in the database; no cut-off is given here.

Experiments:
[1] = target: T1, Melanin-concentrating hormone receptor 1 (Homo sapiens, UniProt Q99705); assay: Antagonist activity at human MCHR1 expressed in Jurkat cells co-expressing apoaequorin assessed as inhibition of MCH-induced calcium mobilization by aequorin bioluminescence assay; format: functional, cell-based
T1 sequence (Q99705 whole entry): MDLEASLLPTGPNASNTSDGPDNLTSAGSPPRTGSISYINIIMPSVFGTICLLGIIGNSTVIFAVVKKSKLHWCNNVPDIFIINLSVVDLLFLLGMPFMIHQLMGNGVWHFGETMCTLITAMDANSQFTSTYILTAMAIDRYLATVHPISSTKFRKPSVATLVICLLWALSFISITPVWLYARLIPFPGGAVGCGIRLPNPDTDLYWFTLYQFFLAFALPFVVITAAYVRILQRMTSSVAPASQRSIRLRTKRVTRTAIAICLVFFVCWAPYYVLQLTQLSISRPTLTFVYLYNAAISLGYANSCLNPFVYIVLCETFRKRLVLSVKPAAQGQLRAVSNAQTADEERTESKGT

[2] = target: T1, Melanin-concentrating hormone receptor 1; assay: Displacement of [125I]-MCH from MCHR1 after 2 hrs by beta scintillation counting
[3] = Clearance in rhesus monkey at 0.5 mg/kg, iv; format: ADME, organism-based, Macaca mulatta; set-up: dose 0.5 mg/kg, route intravenous; settings: in vivo
[4] = Clearance in Beagle dog at 0.5 mg/kg, iv; format: ADME, organism-based, Canis lupus familiaris; set-up: dose 0.5 mg/kg, route intravenous; settings: in vivo
[5] = Oral bioavailability in rhesus monkey at 3 mg/kg; format: ADME, organism-based, Macaca mulatta; settings: in vivo
Rattus norvegicus [6] = assay: Toxicity in ICV cannulated rat model assessed as behavioural toxicity at 0.2 to 5 mg/kg, po administered 3 hrs before MCH challenge measured after 4 hrs post MCH challenge; format: organism-based; set-up: dose 0.2-5 mg/kg, route oral; settings: in vivo
[7] = target: Melanin-concentrating hormone receptor 2 (Homo sapiens) (UniProt Q969V1); assay: Binding affinity to human MCHR2
Melanin-concentrating hormone receptor 2 (Homo sapiens), sequence (Q969V1 whole entry): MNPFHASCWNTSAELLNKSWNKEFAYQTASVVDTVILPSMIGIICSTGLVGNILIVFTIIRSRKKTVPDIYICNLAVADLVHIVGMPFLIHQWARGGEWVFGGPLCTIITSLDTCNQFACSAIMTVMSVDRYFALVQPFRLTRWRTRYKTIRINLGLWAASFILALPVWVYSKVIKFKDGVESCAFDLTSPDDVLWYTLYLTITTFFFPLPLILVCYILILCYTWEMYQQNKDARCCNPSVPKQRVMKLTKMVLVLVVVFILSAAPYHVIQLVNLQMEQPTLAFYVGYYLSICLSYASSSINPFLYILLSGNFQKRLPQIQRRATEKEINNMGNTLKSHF

[8] = Volume of distribution at steady state in Beagle dog at 0.5 mg/kg, iv; format: ADME, organism-based, Canis lupus familiaris; set-up: dose 0.5 mg/kg, route intravenous; settings: in vivo, read-out: Vdss
[9] = Oral bioavailability in Beagle dog at 3 mg/kg; format: ADME, organism-based, Canis lupus familiaris; settings: in vivo
[10] = Mean residence time in Beagle dog at 3 mg/kg, po; format: ADME, organism-based, Canis lupus familiaris; set-up: dose 3 mg/kg, route oral; settings: in vivo
[11] = Volume of distribution at steady state in rhesus monkey at 0.5 mg/kg, iv; format: ADME, organism-based, Macaca mulatta; set-up: dose 0.5 mg/kg, route intravenous; settings: in vivo, read-out: Vdss
Rattus norvegicus [12] = assay: Oral bioavailability in rat at 3 mg/kg; format: ADME, organism-based; settings: in vivo
[13] = AUC in rhesus monkey at 3 mg/kg, po; format: ADME, organism-based, Macaca mulatta; set-up: dose 3 mg/kg, route oral; settings: plasma
[14] = AUC in Beagle dog at 3 mg/kg, po; format: ADME, organism-based, Canis lupus familiaris; set-up: dose 3 mg/kg, route oral; settings: plasma
Cynomolgus monkey [15] = assay: Toxicity in cynomolgus monkey assessed as signs of sedation at 10 mg/kg, po; format: organism-based, Macaca fascicularis; set-up: dose 10 mg/kg, route oral; settings: in vivo
Cynomolgus monkey [16] = assay: Toxicity in cynomolgus monkey at 10 mg/kg, po; format: organism-based, Macaca fascicularis; set-up: dose 10 mg/kg, route oral; settings: in vivo
[17] = Clearance in human hepatocytes assessed per 10^6 cells; format: ADME, cell-based, Liver, Hepatocyte
Rattus norvegicus [18] = assay: AUC in rat at 3 mg/kg, po; format: ADME, organism-based, Plasma; set-up: dose 3 mg/kg, route oral; settings: in vivo
[19] = Mean residence time in rat at 3 mg/kg, po; format: ADME, organism-based; set-up: dose 3 mg/kg, route oral; settings: in vivo
[20] = Clearance in Beagle dog hepatocytes assessed per 10^6 cells; format: ADME, cell-based, Canis lupus familiaris, Liver, Hepatocyte
Rattus norvegicus [21] = assay: Clearance in rat at 0.5 mg/kg, iv; format: ADME, organism-based; set-up: dose 0.5 mg/kg, route intravenous; settings: in vivo
Cynomolgus monkey [22] = assay: Antiobesity activity in cynomolgus monkey assessed as reduction of food intake at 10 mg/kg, po measured up to 8 days; format: functional, organism-based; set-up: dose 10 mg/kg; settings: Macaca fascicularis
[23] = Clearance in rat hepatocytes assessed per 10^6 cells; format: ADME, cell-based, Liver, Hepatocyte
[24] = Mean residence time in rhesus monkey at 3 mg/kg, po; format: ADME, organism-based, Macaca mulatta; set-up: dose 3 mg/kg, route oral; settings: in vivo
[25] = Volume of distribution at steady state in rat at 0.5 mg/kg, iv; format: ADME, organism-based; set-up: dose 0.5 mg/kg, route intravenous; settings: in vivo, read-out: Vdss
[26] = Clearance in rhesus monkey hepatocytes assessed per 10^6 cells; format: ADME, cell-based, Macaca mulatta, Liver, Hepatocyte
Rattus norvegicus [27] = assay: Antiobesity activity in ICV cannulated rat model assessed as reduction in MCH-induced food intake at 1 mg/kg, po administered 3 hrs before MCH challenge measured after 4 hrs post MCH challenge; format: functional, organism-based; set-up: dose 1 mg/kg
[28] = target: Melanin-concentrating hormone receptor 1 (Macaca fascicularis, UniProt B6F061); assay: Antagonist activity at cynomolgus monkey MCHR1; format: functional
Melanin-concentrating hormone receptor 1 (Macaca fascicularis, UniProt B6F061), sequence (B6F061 whole entry): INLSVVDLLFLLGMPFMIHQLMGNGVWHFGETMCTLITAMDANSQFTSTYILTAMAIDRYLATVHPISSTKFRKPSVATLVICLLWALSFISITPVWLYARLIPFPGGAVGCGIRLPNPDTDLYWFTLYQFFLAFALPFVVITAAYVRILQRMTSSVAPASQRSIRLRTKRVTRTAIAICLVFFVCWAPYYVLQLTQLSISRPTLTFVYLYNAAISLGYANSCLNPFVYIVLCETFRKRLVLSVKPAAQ

Rattus norvegicus [29] = assay: Antiobesity activity in ICV cannulated rat model assessed as reduction in MCH-induced food intake at 0.2 mg/kg, po administered 3 hrs before MCH challenge measured after 4 hrs post MCH challenge; format: functional; set-up: scale not given: the % may be the effect or the level left
Rattus norvegicus [30] = assay: Antiobesity activity in ICV cannulated rat model assessed as reduction in MCH-induced food intake at 5 mg/kg, po administered 3 hrs before MCH challenge measured after 4 hrs post MCH challenge; format: functional, organism-based; set-up: dose 5 mg/kg
Rattus norvegicus [31] = assay: Toxicity in ICV cannulated rat model at 0.2 to 5 mg/kg, po administered 3 hrs before MCH challenge measured after 4 hrs post MCH challenge; format: organism-based; set-up: dose 0.2-5 mg/kg, route oral; settings: in vivo
[32] = target: Melanin-concentrating hormone receptor 1 (Rattus norvegicus, UniProt P97639); assay: Antagonist activity at rat MCHR1 expressed in HEK293 cells by aequorin bioluminescence assay; format: functional, cell-based
Melanin-concentrating hormone receptor 1 (Rattus norvegicus, UniProt P97639), sequence (P97639 whole entry): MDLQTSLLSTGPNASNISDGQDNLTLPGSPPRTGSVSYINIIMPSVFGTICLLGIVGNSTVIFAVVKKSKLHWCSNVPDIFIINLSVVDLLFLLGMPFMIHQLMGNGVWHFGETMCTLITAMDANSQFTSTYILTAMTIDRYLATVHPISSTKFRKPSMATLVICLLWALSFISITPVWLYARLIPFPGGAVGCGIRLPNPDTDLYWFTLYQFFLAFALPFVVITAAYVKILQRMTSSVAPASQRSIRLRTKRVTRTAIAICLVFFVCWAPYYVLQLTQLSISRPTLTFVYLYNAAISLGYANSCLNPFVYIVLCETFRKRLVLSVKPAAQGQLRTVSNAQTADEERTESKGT

Compound: CC1c2c([nH]c3c(Cl)cccc23)CC2CCN(C)CC21 (racemic)
IC50 [1]: 1000 nM

Compound: CC1c2c([nH]c3cccc(Cl)c23)CC2CCN(C)CC21 (racemic)
IC50 [1]: 700 nM

Compound: CC1c2c([nH]c3ccc(C(F)(F)F)cc23)CC2CCN(CC3CCCCO3)CC21 (racemic)
IC50 [1]: 180 nM

Compound: CC1c2c([nH]c3ccc(C(F)(F)F)cc23)CC2CCN(C)CC21 (racemic)
IC50 [1]: 100 nM

Compound: Cc1ccc2[nH]c3c(c2c1)C(C)C1CN(C)CCC1C3 (racemic)
IC50 [1]: 200 nM

Compound: COc1ccc2[nH]c3c(c2c1)C(C)C1CN(C)CCC1C3 (racemic)
IC50 [1]: 400 nM

Compound: CC1c2c([nH]c3ccccc23)CC2CCN(C)CC21 (racemic)
IC50 [1]: 1000 nM

Compound: CC1c2c([nH]c3ccc(Cl)cc23)CC2CCN(C)CC21 (racemic)
IC50 [1]: 100 nM

Compound: CC1c2c([nH]c3ccc(C(F)(F)F)cc23)CC2CCN(CCc3ccccc3)CC21 (racemic)
IC50 [1]: 180 nM

Compound: C[C@H]1c2c([nH]c3ccc(C(F)(F)F)cc23)C[C@H]2CCN(CCN3CCCCC3)C[C@@H]21
IC50 [2]: 40 nM
IC50 [1]: 100 nM

Compound: CC1c2c([nH]c3ccc(C(F)(F)F)cc23)CC2CCN(C(=O)C3CCOC3)CC21 (racemic)
IC50 [1]: > 20000 nM

Compound: CC1c2c([nH]c3ccc(C(F)(F)F)cc23)CC2CCN(Cc3ccccc3)CC21 (racemic)
IC50 [1]: 580 nM

Compound: CC1c2c([nH]c3ccc(C(F)(F)F)cc23)CC2CCN(C(=O)c3ccccc3)CC21 (racemic)
IC50 [1]: > 20000 nM

Compound: C[C@@H]1c2c([nH]c3ccc(C(F)(F)F)cc23)C[C@@H]2CCN(CCN3CCOCC3)C[C@H]21
IC50 [2]: 750 nM
IC50 [1]: 1000 nM

Compound: CC1c2c([nH]c3cc(C(F)(F)F)ccc23)CC2CCN(C)CC21 (racemic)
IC50 [1]: 200 nM

Stronger by IC50 [1], values ahead:

IC50 [2]: 4.4 nM
IC50 [1]: 50 nM
Compound: C[C@H]1c2c([nH]c3ccc(C(F)(F)F)cc23)C[C@H]2CCN(CCCCC3CCOCC3)C[C@@H]21

IC50 [1]: 50 nM
Compound: CC1c2c([nH]c3cc(Cl)c(Cl)cc23)CC2CCN(C)CC21 (racemic)

IC50 [2]: 3 nM
IC50 [1]: 20 nM
Compound: C[C@H]1c2c([nH]c3ccc(C(F)(F)F)cc23)C[C@H]2CCN(CCN3CCOCC3)C[C@@H]21

IC50 [1]: 20 nM
Compound: CC1c2c([nH]c3ccc(C(F)(F)F)cc23)CC2CCN(CCN3CCOCC3)CC21 (racemic)

IC50 [2]: 7 nM
IC50 [1]: 7 nM
Compound: C[C@H]1c2c([nH]c3ccc(C(F)(F)F)cc23)C[C@H]2CCN(CCN3CCOCC3=O)C[C@@H]21

clearance [3]: 65 mL/min/kg
clearance [4]: 100 mL/min/kg
bioavailability [5]: 70%
Activity [7]: inactive
Vd [8]: 27 L/kg
bioavailability [9]: 33%
MRT [10]: 2.5 h
Vd [11]: 18 L/kg
F (Rattus norvegicus [12]): 81%
AUC [13]: 907 ng·h/mL
AUC [14]: 268 ng·h/mL
hepatocyte CLint [17]: < 0.3 µL/min/1e6 cells
AUC (Rattus norvegicus [18]): 4078 ng·h/mL
MRT [19]: 28 h
hepatocyte CLint [20]: 8 µL/min/1e6 cells
CL (Rattus norvegicus [21]): 3.3 mL/min/kg
IC50 [2]: 0.5 nM
hepatocyte CLint [23]: < 0.3 µL/min/1e6 cells
MRT [24]: 10 h
Vd [25]: 16 L/kg
hepatocyte CLint [26]: 4.9 µL/min/1e6 cells
IC50 [1]: 6 nM
IC50 [28]: 4 nM
IC50 [32]: 4 nM
Compound: C[C@H]1c2c([nH]c3ccc(C(F)(F)F)cc23)C[C@H]2CCN(CCCC3CCOCC3)C[C@@H]21
Activity (Rattus norvegicus [6]): Non-toxic
Activity (Cynomolgus monkey [15]): Non-toxic
Activity (Cynomolgus monkey [16]): Non-toxic
Activity (Cynomolgus monkey [22]): Active
Activity (Rattus norvegicus [27]): Active
Activity (Rattus norvegicus [29]): 50%
Activity (Rattus norvegicus [30]): Active
Activity (Rattus norvegicus [31]): Non-toxic

IC50 [2]: 0.9 nM
IC50 [1]: 6 nM
Compound: C[C@H]1c2c([nH]c3ccc(C(F)(F)F)cc23)C[C@H]2CCN(CCC3CCOCC3)C[C@@H]21
